Values quoted from earlier work in patent US6338859B1, “Polymeric micelle compositions” (Labopharm Inc., priority 2000, dated 2002).
“And” between values parts separate entries of the source, which are not always exact repeats. Equal entries are not always repeated. Where two headings read alike, the source gives them in different places. Marks after values point to notes of the source that are not given here. One block for each molecule: values may come before it.

What was measured:
[1] = not given; remark: listed apart in the source
[2] = polymer PEO-PE, physical entrapment
[3] = polymer PEO-P(Asp), chemical bonding
[4] = polymer PEO-PBLA, physical entrapment

Molecule: Gd-DTPA-PE
Micelle size with drug [2]: 20 nm

Molecule: C[C@@H]1[C@H](O)[C@@H](C)/C=C/C=C/C=C/C=C/C=C/C=C/C=C/[C@H](O[C@@H]2O[C@H](C)[C@@H](O)[C@H](N)[C@@H]2O)C[C@@H]2O[C@](O)(C[C@@H](O)C[C@@H](O)[C@H](O)CC[C@@H](O)C[C@@H](O)CC(=O)O[C@H]1C)C[C@H](O)[C@H]2C(=O)O [Amphotericin B]
Micelle size with drug [4]: 26 nm
hemolytic activity ([1]; after incorporation into PEO-PBLA micelles): decrease

Molecule: N.N.[Cl][Pt][Cl] [Cisplatin]
Micelle size with drug [3]: 16 nm

Molecule: ^111In-DTPA-SA
Micelle size with drug [2]: 20 nm

B1: Soybean trypsin inhibitor: Soybean trypsin inhibitor physically entrapped in PEO-PE micelles (protein, UniProt P01070 25-205, looked up)
Trypsin inhibitor A: DFVLDNEGNPLENGGTYYILSDITAFGGIRAAPTGNERCPLTVVQSRNELDKGIGTIISSPYRIRFIAEGHPLSLKFDSFAVIMLCVGIPTEWSVVEDLPEGPAVKIGENKDAMDGWFRLERVSDDEFNNYKLVFCPQQAEDDKCGDIGISIDHDDGTRRLVVSKNKPLVVQFQKLDKESL
modifications: entrapped in PEO-PE micelles
Micelle size with drug [2]: 15 nm

Continued, values first:

Micelle size with drug [3]: 14-131 nm and 17-42 nm
Micelle size with drug (polymer PEO-P(Asp), chemical bonding, listed as Doxirubicin (DOX)): 50 nm
Micelle size with drug [4]: 30 nm and 37 nm
retention of drug in micelles ([1]; in PEO-PBLA after freeze drying and reconstitution in water, iodide quenching): retained
Molecule: COc1cccc2c1C(=O)c1c(O)c3c(c(O)c1C2=O)C[C@@](O)(C(=O)CO)C[C@@H]3O[C@H]1C[C@H](N)[C@H](O)[C@H](C)O1 [DOX, doxorubicin]

Micelle size with drug (polymer PEO-(C16, BLA), physical entrapment, after the sonication of PEO(C16, BLA) aggregates): 71* nm
Molecule: KRN-5500

Micelle size with drug [2]: 15 nm
Molecule: Cc1cc(N)c2ccccc2[n+]1CCCCCCCCCC[n+]1c(C)cc(N)c2ccccc21 [Dequalinium]

Micelle size with drug (polymer PEO-PPO-PEO, physical entrapment): 15 nm
Molecule: O=C(CCCN1CCC(O)(c2ccc(Cl)cc2)CC1)c1ccc(F)cc1 [Haloperidol]

Micelle size with drug [4]: 25-29 nm
Micelle size with drug (polymer PEO-PCL, physical entrapment): 145-165 nm and 114-156 nm
Molecule: COc1ccc2c(c1)c(CC(=O)O)c(C)n2C(=O)c1ccc(Cl)cc1 [Indomethacin]
